{"source": "patent EP0835868A1", "about": "“2-Aryl-3-aminoaryloxynaphthyl compounds, intermediates, compositions and methods” (ELI LILLY AND COMPANY, priority 1996, dated 1998)", "key": {"Eosinophil peroxidase": {"tested_on": "Eosinophil peroxidase", "assay": "Uterine Eosinophil Peroxidase (EPO) Assay on uteri of dosed ovariectomized rats", "assay_type": "in vivo, Sprague Dawley rats", "settings": "daily for 4 days, OVX rats", "from_the_text": "(§1) Seventy-five day old female Sprague Dawley rats (weight range of 200 to 225g) are obtained from Charles River Laboratories (Portage, MI). The animals are either bilaterally ovariectomized (OVX) or exposed to a Sham surgical procedure at Charles River Laboratories, and then shipped after one week. Upon arrival, they are housed in metal hanging cages in groups of 3 or 4 per cage and have ad libitum access to food (calcium content approximately 0.5%) and water for one week. Room temperature is maintained at 22.2° ± 1.7° C with a minimum relative humidity of 40%. The photoperiod in the room is 12 hours light and 12 hours dark. Dosing Regimen Tissue Collection. After a one week acclimation period (therefore, two weeks post-OVX) daily dosing with test compound is initiated. 17a-ethynyl estradiol or the test compound are given orally, unless otherwise stated, as a suspension in 1% carboxymethylcellulose or dissolved in 20% cyclodextrin. Animals are dosed daily for 4 days. Following the dosing regimen, animals are weighed and anesthetized with a ketamine: Xylazine (2:1, V:V) mixture and a blood sample is collected by cardiac puncture. The animals are then sacrificed by asphyxiation with CO2, the uterus is removed through a midline incision, and a wet uterine weight is determined.\n(§2) Cholesterol Analysis. Blood samples are allowed to clot at ambient temperature for 2 hours, and serum is obtained following centrifugation for 10 minutes at 3000 rpm. Serum cholesterol is determined using a Boehringer Mannheim Diagnostics high performance cholesterol assay. Briefly, the cholesterol is oxidized to cholest-4-en-3-one […]. The hydrogen peroxide is then reacted with phenol and 4-aminophenazone in the presence of peroxidase to produce a p-quinone imine dye, which is read spectrophotemetrically at 500 nm. Cholesterol concentration is then calculated against a standard curve. The entire assay is automated using a Biomek Automated Workstation. Uterine Eosinophil Peroxidase (EPO) Assay. Uteri are kept at 4° C until time of enzymatic analysis. The uteri are then homogenized in 50 volumes of 50 mM Tris buffer (pH - 8.0) containing 0.005% Triton X-100. Upon addition of 0.01% hydrogen peroxide and 10 mM O-phenylenediamine (final concentrations) in Tris buffer, increase in absorbance is monitored for one minute at 450 nm. The presence of eosinophils in the uterus is an indication of estrogenic activity of a compound. The maximal velocity of a 15 second interval is determined over the initial, linear portion of the reaction curve. Source of Compound: 17a-ethynyl estradiol was obtained from Sigma Chemical Co., St. Louis, MO."}, "[1]": {"tested_on": "female Sprague Dawley rats", "assay": "Estrogen deprivation model in ovariectomized rats: wet uterine weight", "assay_type": "in vivo", "settings": "daily for 4 days, OVX rats, % increase versus the ovariectomized controls", "protocol": "(§3) In the examples illustrating the methods, an estrogen deprivation model was used in which effects of different treatments upon circulating lipids were determined.\nas §1"}, "[2]": {"tested_on": "female Sprague Dawley rats", "assay": "Estrogen deprivation model in ovariectomized rats: serum cholesterol analysis", "assay_type": "in vivo", "settings": "daily for 4 days, OVX rats, decrease versus ovariectomized controls", "protocol": "as §3, §1, §2"}}, "note": "Where a name gives a salt, the structure may show the parent alone. Marks after values point to notes of the source that are not given here.", "data": [{"molecule": "C#C[C@]1(O)CC[C@H]2[C@@H]3CCc4cc(O)ccc4[C@H]3CC[C@@]21C", "note": "[EE2, 17-a-Ethynyl-estradiol, reference compound]", "values": [{"measurement": "Uterine Eosinophil (Vmax)", "setting": "Eosinophil peroxidase; 0.1 mg/kg PO", "value": "54.6*"}, {"measurement": "Uterine Weight (% Inc.)", "setting": "[1]; 0.1 mg/kg PO", "value": "96.0* % Inc."}, {"measurement": "Serum Cholesterol (% Dec.)", "setting": "[2]; 0.1 mg/kg PO", "value": "75.9* % Dec."}]}, {"molecule": "Oc1ccc(-c2ccc3cc(O)ccc3c2Oc2ccc(NCCN3CCCCC3)cc2)cc1", "note": "[Example 4, 1-[4-[2-(1-Piperidinyl)ethylamino]phenoxy]-2-(4-hydroxyphenyl)-6-hydroxynaphthalene]", "values": [{"measurement": "Uterine Eosinophil (Vmax)", "setting": "Eosinophil peroxidase; 0.01 mg/kg PO", "value": 2.7}, {"measurement": "Uterine Eosinophil (Vmax)", "setting": "Eosinophil peroxidase; 0.1 mg/kg PO", "value": 4.5}, {"measurement": "Uterine Eosinophil (Vmax)", "setting": "Eosinophil peroxidase; 1.0 mg/kg PO", "value": 5.4}, {"measurement": "Uterine Weight (% Inc.)", "setting": "[1]; 0.01 mg/kg PO", "value": 7.1, "unit": "% Inc."}, {"measurement": "Uterine Weight (% Inc.)", "setting": "[1]; 0.1 mg/kg PO", "value": "39.8* % Inc."}, {"measurement": "Uterine Weight (% Inc.)", "setting": "[1]; 1.0 mg/kg PO", "value": 25.4, "unit": "% Inc."}, {"measurement": "Serum Cholesterol (% Dec.)", "setting": "[2]; 0.01 mg/kg PO", "value": "20.8* % Dec."}, {"measurement": "Serum Cholesterol (% Dec.)", "setting": "[2]; 0.1 mg/kg PO", "value": "59.9* % Dec."}, {"measurement": "Serum Cholesterol (% Dec.)", "setting": "[2]; 1.0 mg/kg PO", "value": "75.3* % Dec."}]}, {"molecule": "O=C(CN1CCCCC1)Nc1ccc(Oc2c(-c3ccc(O)cc3)ccc3cc(O)ccc23)cc1", "note": "[Example 2, 1-[4-[2-(1-Piperidinyl)acetylamido]phenoxy-2-(4-hydroxyphenyl)-6-hydroxynaphthalene Hydrochloride]", "values": [{"measurement": "Uterine Eosinophil (Vmax)", "setting": "Eosinophil peroxidase; 0.1 mg/kg PO", "value": 1.8}, {"measurement": "Uterine Eosinophil (Vmax)", "setting": "Eosinophil peroxidase; 1.0 mg/kg PO", "value": 11.7}, {"measurement": "Uterine Eosinophil (Vmax)", "setting": "Eosinophil peroxidase; 10.0 mg/kg PO", "value": "71.1*"}, {"measurement": "Uterine Weight (% Inc.)", "setting": "[1]; 0.1 mg/kg PO", "value": 13.6, "unit": "% Inc."}, {"measurement": "Uterine Weight (% Inc.)", "setting": "[1]; 1.0 mg/kg PO", "value": "59.0* % Inc."}, {"measurement": "Uterine Weight (% Inc.)", "setting": "[1]; 10.0 mg/kg PO", "value": "107.0* % Inc."}, {"measurement": "Serum Cholesterol (% Dec.)", "setting": "[2]; 0.1 mg/kg PO", "value": 27, "unit": "% Dec."}, {"measurement": "Serum Cholesterol (% Dec.)", "setting": "[2]; 1.0 mg/kg PO", "value": "66.4* % Dec."}, {"measurement": "Serum Cholesterol (% Dec.)", "setting": "[2]; 10.0 mg/kg PO", "value": "57.6* % Dec."}]}]}
